Measured values as given in ChEMBL document CHEMBL1201862, “PubChem BioAssay data set” (2004).
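In this assay, cells in 96-well plates receive the compound at five concentrations for 48 hours. Endpoints are linearly interpolated between the surrounding concentrations. GI50 marks 50% less growth.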 Active and inactive are the calls of the source. Rule as the data show it: active = GI50 up to about 1.1 µM and inactive = higher.

What was measured:
Test in all cases: NCI anticancer screen, dose series, 48 h
SW-620 = system: SW-620
NCI-H522 = system: NCI-H522
HOP-92 = system: HOP-92
KM12 = system: KM12
A549 = system: A549
PC-3 = system: PC-3
SK-MEL-2 = system: SK-MEL-2
SK-OV-3 = system: SK-OV-3
RPMI-8226 = system: RPMI-8226
HCC 2998 = system: HCC 2998
LOX IMVI = system: LOX IMVI
SF-268 = system: SF-268
SF-539 = system: SF-539
HCT-116 = system: HCT-116
HL-60 = system: HL-60
CCRF-CEM = system: CCRF-CEM
NCI-H460 = system: NCI-H460
HT-29 = system: HT-29
SNB-75 = system: SNB-75
SR = system: SR

Measured: GI50

CC(C)(C)OC(=O)Nc1cc(-c2ccccc2)co1
inactive: SW-620 > 100 µM | NCI-H522 17.3 µM | HOP-92 25.8 µM | KM12 > 100 µM | A549 78.2 µM | PC-3 50.1 µM | SK-MEL-2 71.1 µM | SK-OV-3 > 100 µM | RPMI-8226 41.1 µM | HCC 2998 > 100 µM | LOX IMVI > 100 µM | SF-268 22.7 µM | SF-539 > 100 µM | HCT-116 83.9 µM | HL-60 > 100 µM | CCRF-CEM 51.8 µM

O=c1oc(-c2ccccc2)c(-c2ccccc2)n1-c1ccc(Br)cc1
inactive: SW-620 > 100 µM | NCI-H522 17.2 µM | HOP-92 35.4 µM | KM12 37.4 µM | A549 54.5 µM | PC-3 > 100 µM | SK-MEL-2 > 100 µM | SK-OV-3 31.1 µM | LOX IMVI 32.4 µM | SF-268 55 µM | SF-539 20.6 µM | NCI-H460 62.1 µM | HCT-116 49.7 µM | HL-60 39.5 µM | HT-29 > 100 µM | SNB-75 12 µM | CCRF-CEM 93.8 µM

O=C1NCN(c2ccccc2)C12CCN(CCc1ccc3[nH]c(=S)[nH]c3c1)CC2
inactive: SW-620 11.9 µM | NCI-H522 43.4 µM | HOP-92 13.9 µM | KM12 27.9 µM | A549 66.5 µM | PC-3 24.3 µM | SK-MEL-2 20.7 µM | SK-OV-3 > 100 µM | RPMI-8226 22.3 µM | LOX IMVI 18.5 µM | SF-268 56.9 µM | SF-539 22.1 µM | NCI-H460 31.8 µM | HCT-116 43 µM | HL-60 29.1 µM | HT-29 29.3 µM | CCRF-CEM 3.15 µM

COc1cnc2oc3ccc(O)cc3c2c1-c1ccccc1
inactive: SW-620 > 100 µM | NCI-H522 > 100 µM | HOP-92 > 100 µM | KM12 83.2 µM | A549 > 100 µM | PC-3 > 100 µM | SK-MEL-2 > 100 µM | SK-OV-3 > 100 µM | RPMI-8226 > 100 µM | HCC 2998 27.7 µM | LOX IMVI > 100 µM | SF-268 4 µM | SF-539 > 100 µM | NCI-H460 > 100 µM | HCT-116 15.2 µM | HL-60 > 100 µM | HT-29 85.1 µM | SNB-75 > 100 µM | CCRF-CEM 59.3 µM

O=C(CCN1CCCCC1)c1csc2ccccc12
inactive: SW-620 > 100 µM | NCI-H522 > 100 µM | HOP-92 > 100 µM | KM12 33.1 µM | A549 > 100 µM | PC-3 > 100 µM | SK-MEL-2 > 100 µM | SK-OV-3 > 100 µM | RPMI-8226 10.1 µM | SR > 100 µM | LOX IMVI > 100 µM | SF-268 > 100 µM | SF-539 > 100 µM | NCI-H460 > 100 µM | HCT-116 > 100 µM | HT-29 > 100 µM | SNB-75 > 100 µM

Cc1cc(S(=O)(=O)Nc2nc(N)n(-c3ccccn3)n2)c(S)cc1Cl
inactive: SW-620 > 100 µM | NCI-H522 > 100 µM | KM12 > 100 µM | A549 > 100 µM | PC-3 > 100 µM | SK-MEL-2 > 100 µM | SK-OV-3 > 100 µM | RPMI-8226 > 100 µM | HCC 2998 > 100 µM | SR > 100 µM | LOX IMVI > 100 µM | SF-268 > 100 µM | SF-539 > 100 µM | NCI-H460 > 100 µM | HCT-116 > 100 µM | HL-60 > 100 µM | HT-29 > 100 µM | SNB-75 > 100 µM | CCRF-CEM > 100 µM

COc1ccc(S(=O)(=O)O)cc1-n1nc(C(=O)Nc2ccccc2)n[n+]1-c1cc(S(=O)(=O)[O-])ccc1OC
inactive: SW-620 > 100 µM | NCI-H522 > 100 µM | KM12 > 100 µM | A549 > 100 µM | PC-3 > 100 µM | SK-OV-3 > 100 µM | RPMI-8226 > 100 µM | HCC 2998 > 100 µM | SR > 100 µM | SF-268 > 100 µM | SF-539 > 100 µM | NCI-H460 > 100 µM | HCT-116 > 100 µM | HL-60 > 100 µM | HT-29 > 100 µM | SNB-75 > 100 µM | CCRF-CEM > 100 µM

Cc1nn(C(=O)Cc2ccccc2)c2c1C(c1ccc(O)cc1)SC(=N)N2 (stereo not given)
inactive: SW-620 > 100 µM | NCI-H522 > 100 µM | KM12 > 100 µM | A549 > 100 µM | PC-3 > 100 µM | SK-OV-3 > 100 µM | RPMI-8226 > 100 µM | HCC 2998 > 100 µM | SR > 100 µM | LOX IMVI > 100 µM | SF-268 > 100 µM | SF-539 > 100 µM | NCI-H460 > 100 µM | HCT-116 > 100 µM | HL-60 > 100 µM | HT-29 > 100 µM | SNB-75 44.6 µM | CCRF-CEM > 100 µM
